Tests used:
[1] = target: Proteasome subunit beta type-2 (Homo sapiens, UniProt P49721); test: Inhibition of 20S proteosome beta 2 in human MOLT4 cells by ELISA
[2] = target: T1, Proteasome subunit beta type-1 (Homo sapiens, UniProt P20618); test: Inhibition of 20S proteosome beta 1 in human MOLT4 cells by ELISA
T1 sequence (P20618 whole entry): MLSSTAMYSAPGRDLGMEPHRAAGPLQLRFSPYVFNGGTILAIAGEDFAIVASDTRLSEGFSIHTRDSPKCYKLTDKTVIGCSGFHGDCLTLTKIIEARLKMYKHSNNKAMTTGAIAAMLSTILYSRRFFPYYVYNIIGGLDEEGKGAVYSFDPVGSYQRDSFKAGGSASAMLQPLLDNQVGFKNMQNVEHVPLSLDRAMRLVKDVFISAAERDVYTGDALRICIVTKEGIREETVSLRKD

[3] = target: T2, Proteasome subunit beta type-1 (Mus musculus, UniProt O09061); test: Inhibition of 20S proteosome beta 1 in mouse A20 cells by ELISA
T2 sequence (O09061 whole entry): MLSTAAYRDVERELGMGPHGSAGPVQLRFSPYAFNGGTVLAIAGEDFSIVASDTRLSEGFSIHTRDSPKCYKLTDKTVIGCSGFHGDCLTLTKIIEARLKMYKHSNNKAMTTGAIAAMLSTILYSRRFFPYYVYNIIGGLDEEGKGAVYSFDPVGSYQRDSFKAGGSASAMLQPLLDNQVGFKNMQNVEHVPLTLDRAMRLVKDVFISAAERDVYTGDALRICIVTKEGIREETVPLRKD

[4] = Inhibition of 20S proteosome beta 1 in human MOLT4 cells by ELISA
[5] = Inhibition of 20S proteosome beta 1 in mouse A20 cells by ELISA
[6] = Inhibition of 20S proteosome beta 2 in human MOLT4 cells by ELISA

Proteasome subunit beta type-2, sequence (P49721 whole entry): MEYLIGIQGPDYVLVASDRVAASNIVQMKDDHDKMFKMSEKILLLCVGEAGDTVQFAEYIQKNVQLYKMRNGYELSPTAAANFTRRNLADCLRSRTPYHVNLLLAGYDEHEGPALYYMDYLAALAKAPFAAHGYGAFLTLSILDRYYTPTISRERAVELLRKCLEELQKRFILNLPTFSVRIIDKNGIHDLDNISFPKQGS

| SMILES | IC50 [1] [µM] | IC50 [2] [µM] | IC50 [3] [µM] | IC50 [4] [µM] | IC50 [5] [µM] | IC50 [6] [µM] |
| --- | --- | --- | --- | --- | --- | --- |
| COc1ccc(C[C@H](NC(=O)[C@@H](C)NC(=O)[C@H]2CC[C@H](O)CC2)C(=O)N[C@@H](Cc2ccccc2)C(=O)[C@@]2(C)CO2)cc1 | > 25 | > 25 |  |  |  |  |
| CC(C)C[C@H](NC(=O)CN1CCCCCC1)C(=O)N[C@@H](Cc1ccccc1)C(=O)N[C@@H](Cc1ccccc1)C(=O)[C@@]1(C)CO1 |  |  | > 250 | > 250 |  |  |
| COc1ccc([C@@H](O)[C@H](NC(=O)[C@H](C)NC(=O)CN2CCOCC2)C(=O)N[C@@H](CC2=CCCC2)C(=O)[C@@]2(C)CO2)cc1 [Kzr-616] |  |  |  | > 10.6 | > 25 |  |
| COc1ccc(C[C@H](NC(=O)[C@@H](C)NC(=O)[C@H]2CC[C@H](O)CC2)C(=O)N[C@@H](CC2=CCCC2)C(=O)[C@@]2(C)CO2)cc1 |  |  |  | > 25 |  | > 25 |
| Cc1ccc(CC[C@H](NC(=O)[C@H](Cc2ccccc2)NC(=O)[C@H](CC(C)C)NC(=O)CN2CCCCCC2)C(=O)[C@@]2(C)CO2)cc1 | 0.413 |  | > 25 | > 25 |  |  |

From BindingDB's records for doi:10.1021/acs.jmedchem.8b01201 (Kezar Life Sciences, 2018)
